Patent USRE46511E1, “Fused pyrimidine derivatives for inhibition of tyrosine kinase activity” (HANMI SCIENCE CO., LTD., priority 2010, dated 2017)

What was measured:
[1] = system: NCI-H1975 (EGFR L858R/T790M); experiment: Inhibition test for growth of cancer cell expressing EGFR (MTS), NCI-H1975; assay type: cell-based; details: Homo sapiens; NCI-H1975 cells, 48 hours, MTS; read-out: GI50 NCI-H1975 EGFR L858R/T790M
Procedure: (§4) A431 cell line was incubated in a high-glucose DMEM (Dulbecco's Modified Eagle's Medium) supplemented with 10% fetal bovine serum (FBS) and 1% penicillin/streptomycin (Gibco BRL), and HCC827 and NCI-H1975 cell lines were incubated in an RPMI medium supplemented with 10% FBS, 1% penicillin/streptomycin and 1% sodium pyruvate.
(§5) The cancer cell lines stored in a liquid nitrogen tank were each quickly thawed at 37° C., and centrifuged to remove the medium. The resulting cell pellet was mixed with a culture medium, incubated in a culture flask at 37° C. under 5% CO2 for 2 to 3 days, and the medium was removed. The remaining cells were washed with DPBS (Dulbecco's Phosphate Buffered Saline) and separated from the flask by using Tripsin-EDTA. […] 100 μl of the diluted cell solution was added to each well of a 96-well plate, and incubated at 37° C. under 5% CO2 for 1 day.
(§6) In case that the test compound was not soluble in DMSO, 1% HCl was added thereto and treated in a 40° C. water bath for 30 mins until a complete dissolution was attained. The DMSO solution containing test compound was diluted with a culture medium to a final concentration of 100 μM, and then diluted 10 times serially to 10^−6 μM (a final concentration of DMSO was less than 1%).
(§7) The medium was removed from each well of the 96-well plate. And then, 100 μl of a test compound solution was added to each well holding the cultured cells, and the plate was incubated at 37° C. under 5% CO2 for 72 hours (except that NCI-H1975 cells were incubated for 48 hours). After removing the medium from the plate, 50 μA of 10% trichloroacetic acid was added to each well, and the plate was kept at 4° C. for 1 hour to fix the cells to the bottom of the plate. The added 10% trichloroacetic acid solution was removed from each well, the plate was dried, 100 μA of an SRB (Sulforhodamine-B) dye solution at a concentration of 0.4% dissolved in 1% acetic acid was added thereto, and the resulting mixture was reacted for 10 mins at room temperature. After removing the dye solution, the plate was washed with water, and well dried. When the dye solution was not effectively removed by water, 1% acetic acid was used. 150 μA of 10 mM trisma base was added to each well, and the absorbance at 540 nm wavelength was determined with a microplate reader.

JAK3 = molecular target: T1, JAK3 (Homo sapiens, UniProt P52333); experiment: z-lyte kinase assay, JAK3; assay type: biochemical
T1 construct: purchased Invitrogen
T1 sequence (P52333 1-1124): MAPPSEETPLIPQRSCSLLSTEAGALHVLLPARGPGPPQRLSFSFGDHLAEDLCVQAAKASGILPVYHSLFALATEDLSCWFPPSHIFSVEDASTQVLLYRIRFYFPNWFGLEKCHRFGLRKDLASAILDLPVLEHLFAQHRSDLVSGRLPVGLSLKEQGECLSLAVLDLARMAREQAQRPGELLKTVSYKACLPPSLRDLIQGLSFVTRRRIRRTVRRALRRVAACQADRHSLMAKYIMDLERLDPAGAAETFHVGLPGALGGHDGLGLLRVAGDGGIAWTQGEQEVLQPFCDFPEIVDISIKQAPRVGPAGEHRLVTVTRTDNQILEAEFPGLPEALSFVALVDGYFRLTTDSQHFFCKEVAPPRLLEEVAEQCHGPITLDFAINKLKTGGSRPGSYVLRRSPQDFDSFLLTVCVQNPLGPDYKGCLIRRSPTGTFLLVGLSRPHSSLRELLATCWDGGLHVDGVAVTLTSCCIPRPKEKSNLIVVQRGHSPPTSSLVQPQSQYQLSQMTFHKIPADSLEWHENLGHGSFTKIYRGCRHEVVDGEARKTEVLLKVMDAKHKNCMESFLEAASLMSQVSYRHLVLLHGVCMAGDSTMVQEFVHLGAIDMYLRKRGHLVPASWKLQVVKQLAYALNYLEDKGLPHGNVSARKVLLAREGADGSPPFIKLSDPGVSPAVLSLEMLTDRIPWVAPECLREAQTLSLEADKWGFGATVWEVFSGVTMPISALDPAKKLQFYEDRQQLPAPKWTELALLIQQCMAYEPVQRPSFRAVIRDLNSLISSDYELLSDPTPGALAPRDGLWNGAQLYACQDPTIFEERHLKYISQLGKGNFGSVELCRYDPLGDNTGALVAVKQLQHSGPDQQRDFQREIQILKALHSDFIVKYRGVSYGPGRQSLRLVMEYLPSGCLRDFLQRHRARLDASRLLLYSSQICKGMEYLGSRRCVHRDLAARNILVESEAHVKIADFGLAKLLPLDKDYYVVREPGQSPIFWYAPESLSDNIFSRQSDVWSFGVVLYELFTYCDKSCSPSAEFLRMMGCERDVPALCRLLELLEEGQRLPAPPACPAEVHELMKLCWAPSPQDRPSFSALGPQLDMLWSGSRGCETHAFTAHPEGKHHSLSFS
Procedure: (§1) The inhibiting activities of the inventive compounds obtained in Examples 1 to 237 against EGFR WT and EGFR L858R/T790M kinase were determined using z-lyte kinase assay kit (Invitrogen, PV3191). The kinases used in the test were purchased from Invitrogen.
(§2) The compounds obtained in Examples 1 to 237 were each prepared to 10 mM DMSO solution, and a solution containing 4% DMSO were prepared therefrom and diluted to a concentration of 1 μM to 0.0001 μM. […] The test was conducted in a 384 well polystyrene flat-bottomed plates. 5 μl of the diluted solution of each compound was added to each well, and 10 μl of a mixture of peptide substrate and kinase in a suitable concentration and 5 μl of 5˜300 μM ATP solution were successively added thereto and the plate was incubated in a stirrer at room temperature for 60 minutes. After 60 mins, 10 μl of coloring reagent was added to the resulting mixture to initiate a fluorescence reaction of peptide substrate and a terminating solution was added thereto for terminating the reaction. A fluorescence value of each well was determined with a fluorescence meter (Molecular Device) at 400 nm (excitation filter) and 520 nm (emission filter). […] The calculation of IC50 and the result analysis were carried out by using Microsoft Excel.
(§3) The inhibiting activities of the inventive compounds obtained in Examples 1 to 237 against BTK and JAK3 kinases were determined, respectively. The procedure of Test Example 2 was repeated except that BTK and JAK3 kinases (Invitrogen) were employed instead of using the EGFR kinase.

BTK = molecular target: T2, BTK (Homo sapiens, UniProt Q06187); experiment: z-lyte kinase assay, BTK; assay type: biochemical
T2 construct: purchased Invitrogen
T2 sequence (Q06187 whole entry): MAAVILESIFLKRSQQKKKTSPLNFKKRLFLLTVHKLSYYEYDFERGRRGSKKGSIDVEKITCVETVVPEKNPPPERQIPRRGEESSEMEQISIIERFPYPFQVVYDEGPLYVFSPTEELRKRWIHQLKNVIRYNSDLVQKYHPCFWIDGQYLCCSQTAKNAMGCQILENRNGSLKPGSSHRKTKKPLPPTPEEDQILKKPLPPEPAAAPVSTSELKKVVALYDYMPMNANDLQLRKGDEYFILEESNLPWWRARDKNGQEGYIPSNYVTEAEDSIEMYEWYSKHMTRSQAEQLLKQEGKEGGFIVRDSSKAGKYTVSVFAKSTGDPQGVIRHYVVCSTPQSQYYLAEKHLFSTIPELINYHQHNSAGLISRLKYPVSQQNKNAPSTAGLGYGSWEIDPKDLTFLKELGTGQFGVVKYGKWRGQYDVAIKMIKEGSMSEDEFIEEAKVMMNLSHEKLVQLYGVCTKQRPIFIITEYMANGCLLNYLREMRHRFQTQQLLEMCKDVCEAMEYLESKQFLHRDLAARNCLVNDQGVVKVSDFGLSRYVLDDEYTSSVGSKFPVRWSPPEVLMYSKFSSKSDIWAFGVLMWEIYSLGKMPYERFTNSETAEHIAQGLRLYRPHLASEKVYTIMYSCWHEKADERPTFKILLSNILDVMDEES
Procedure: as §1, §2, §3

A431 (EGFR WT) = experiment: Inhibition test for growth of cancer cell expressing EGFR (SRB), A431; assay type: cell-based; details: Homo sapiens, A-431; A431 cells, 72 hours, SRB; read-out: GI50 A431 EGFR WT;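 further: cells in 96-well plates exposed to tenfold serial dilutions from 100 µM down to 10^−6 µM, DMSO under 1%, SRB staining read as absorbance at 540 nm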
[2] = system: HCC827 (EGFR DelE746_A750); experiment: Inhibition test for growth of cancer cell expressing EGFR (SRB), HCC827; assay type: cell-based; details: Homo sapiens, HCC827, 72 h, HCC827 cells, 72 hours, SRB; read-out: GI50 HCC827 EGFR DelE746_A750;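 further: cells in 96-well plates exposed to tenfold serial dilutions from 100 µM, fixed with trichloroacetic acid, SRB-stained, absorbance read at 540 nm, DMSO under 1%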
Procedure: as §4, §5, §6, §7

SMILES | GI50 [1] [nM] | IC50 (JAK3) [nM] | IC50 (BTK) [nM] | GI50 (A431 (EGFR WT)) [nM] | GI50 [2] [nM]
C=CC(=O)Nc1cccc(Oc2nc(Nc3ccc(N4CCN(C)CC4)c(F)c3)nc3ccsc23)c1 [Example 3] | < 50 | 50 to 100 | ≤ 50 | > 1000 | < 50
C=CC(=O)Nc1cccc(Oc2nc(Nc3ccc(N4CCN(C(C)C)CC4)cc3)nc3ccsc23)c1 [Example 11] | < 50 | ≤ 50 | ≤ 50 | 100 to 1000 | < 50
C=CC(=O)Nc1cccc(Oc2nc(Nc3ccc(N4CCOCC4)cc3)nc3ccsc23)c1 [Example 29] | < 50 | ≤ 50 | ≤ 50 | > 1000 | 50 to 100
C=CC(=O)Nc1cccc(Oc2nc(Nc3ccc(N4CCC(CN5CCCCC5)CC4)cc3)nc3ccsc23)c1 [Example 42] | < 50 | 50 to 100 | ≤ 50 | > 1000 | < 50
C=CC(=O)Nc1cccc(Oc2nc(Nc3ccc(N4CCC(N5CCN(CC)CC5)CC4)cc3)nc3ccsc23)c1 [Example 50] | 100 to 1000 | 50 to 100 | ≤ 50 | > 1000 | < 50
C=CC(=O)Nc1cccc(Oc2nc(Nc3ccc(C4=CCN(C)CC4)cc3)nc3ccsc23)c1 [Example 51] | < 50 | 50 to 100 | ≤ 50 | > 1000 | < 50
C=CC(=O)Nc1cccc(Oc2nc(Nc3ccc(C4CCN(CC)CC4)cc3)nc3ccsc23)c1 [Example 53] | < 50 | ≤ 50 | ≤ 50 | > 1000 | < 50
C=CC(=O)Nc1cccc(Oc2nc(Nc3ccc(OCCN(C)C)cc3)nc3ccsc23)c1 [Example 62] | < 50 | ≤ 50 | ≤ 50 | > 1000 | < 50
C=CC(=O)Nc1cccc(Oc2nc(Nc3ccc(OC4CCN(CC)CC4)cc3)nc3ccsc23)c1 [Example 66] | < 50 | 50 to 100 | ≤ 50 | > 1000 | < 50
C=CC(=O)Nc1cccc(Oc2nc(Nc3ccc(C(=O)NC4CCN(C)CC4)cc3)nc3ccsc23)c1 [Example 82] | < 50 | ≤ 50 | ≤ 50 | > 1000 | < 50
C=CC(=O)Nc1cccc(Oc2nc(Nc3ccc(C(=O)NC4CCN(C(C)C)CC4)cc3)nc3ccsc23)c1 [Example 83] | < 50 | ≤ 50 | ≤ 50 | 100 to 1000 | < 50
C=CC(=O)Nc1cccc(Oc2nc(Nc3ccc(CCN4CCN(CC)CC4)cc3)nc3ccsc23)c1 [Example 99] | < 50 | 50 to 100 | ≤ 50 | > 1000 | 50 to 100
C=CC(=O)Nc1cccc(Oc2nc(Nc3ccc(N4CCC(N5CCCCC5)CC4)c(F)c3)nc3ccsc23)c1 [Example 125] | < 50 | ≤ 50 | ≤ 50 | > 1000 | < 50
C=CC(=O)Nc1cccc(Oc2nc(Nc3ccc(NC4CCN(C)CC4)c(F)c3)nc3ccsc23)c1 [Example 129] | < 50 | ≤ 50 | ≤ 50 | > 1000 | < 50
C=CC(=O)Nc1cccc(Oc2nc(Nc3ccc(C(=O)NC4CCN(C)CC4)c(Cl)c3)nc3ccsc23)c1 [Example 142] | < 50 | ≤ 50 | ≤ 50 | > 1000 | < 50

Other lines, results leading:

GI50 [1] [nM] | IC50 (JAK3) [nM] | IC50 (BTK) [nM] | GI50 (A431 (EGFR WT)) [nM] | GI50 [2] [nM] | SMILES
50 to 100 | 50 to 100 | ≤ 50 | – | < 50 | C=CC(=O)Nc1cccc(Oc2nc(Nc3ccc(CN4CCN(C)CC4)nc3)nc3ccsc23)c1 [Example 169]
< 50 | ≤ 50 | ≤ 50 | 100 to 1000 | < 50 | C=CC(=O)Nc1cccc(Oc2nc(Nc3ccc(CN(C)C)cc3)nc3ccsc23)c1 [Example 173]
< 50 | 50 to 100 | ≤ 50 | – | < 50 | C=CC(=O)Nc1cccc(Oc2nc(Nc3ccc(CN(CC)CC)cc3)nc3ccsc23)c1 [Example 174]
< 50 | ≤ 50 | ≤ 50 | > 1000 | < 50 | C=CC(=O)Nc1cccc(Oc2nc(Nc3ccc(CN4CCC(N(C)C)CC4)cc3)nc3ccsc23)c1 [Example 180]
< 50 | ≤ 50 | ≤ 50 | > 1000 | < 50 | C=CC(=O)Nc1cccc(Oc2nc(Nc3ccc(CN4CCC(N5CCOCC5)CC4)cc3)nc3ccsc23)c1 [Example 181]
< 50 | 50 to 100 | ≤ 50 | > 1000 | < 50 | C=CC(=O)Nc1cccc(Oc2nc(Nc3ccc(CN4CCN(C)CC4)cc3)nc3ccsc23)c1 [Example 182]
< 50 | 50 to 100 | 50 to 100 | > 1000 | < 50 | C=CC(=O)Nc1cccc(Oc2nc(Nc3ccc(CN4CCN(CC)CC4)cc3)nc3ccsc23)c1 [Example 183]
< 50 | 50 to 100 | 50 to 100 | > 1000 | 50 to 100 | C=CC(=O)Nc1cccc(Oc2nc(Nc3ccc(CN4CCOCC4)cc3)nc3ccsc23)c1 [Example 187]
< 50 | ≤ 50 | ≤ 50 | > 1000 | < 50 | C=CC(=O)Nc1cccc(Oc2nc(Nc3ccc(NCCN(C)C)c(F)c3)nc3ccsc23)c1 [Example 199]
< 50 | 50 to 100 | ≤ 50 | > 1000 | < 50 | C=CC(=O)Nc1cccc(Oc2nc(Nc3ccc(C(=O)N4CCN(CC)CC4)c(Cl)c3)nc3ccsc23)c1 [Example 203]
< 50 | ≤ 50 | ≤ 50 | > 1000 | < 50 | C=CC(=O)Nc1ccc(F)c(Nc2nc(Nc3ccc(N4CCN(C)CC4)c(F)c3)nc3ccsc23)c1 [Example 219, N-(4-fluoro-3-(2-(3-fluoro-4-(4-methyl-piperazin-1-yl)-phenylamino)-thieno[3,2-d]pyrimidin-4-ylamino)-phenyl)-acrylamide]
< 50 | ≤ 50 | ≤ 50 | > 1000 | < 50 | C=CC(=O)Nc1cccc(Sc2nc(Nc3ccc(N4CCN(C)CC4)cc3)nc3ccsc23)c1 [Example 223, N-(3-(2-(4-(4-methylpiperazin-1-yl)phenylamino)thieno[3,2-d]pyrimidin-4-ylthio)phenyl)acrylamide]
50 to 100 | ≤ 50 | ≤ 50 | – | 50 to 100 | C=CC(=O)Nc1cccc(Oc2nc(Nc3ccc(CN4CCC(N(C)C)CC4)cc3)nc3ccoc23)c1 [Example 232]
